Reference: patent US5854004A, “Process for screening substances capable of modulating a receptor-dependent cellular signal transmission path” (Boehringer Ingleheim GmbH, priority 1991, dated 1998)
Entries after “also recorded” stand apart in the source; their conditions may differ.

What was measured:
[1] = molecular target: human dopamine D1-receptor (Homo sapiens, UniProt P21728); test: Induction of pADneo2-C6-BGL (CRE) via dopamine-D1-receptor in co-transfected COS-7 cells; conditions: COS-7; 20 μM forskolin or 1 μM apomorphine, 18 h
A549 cells [2] = conditions: Voraberger et al., 1991; cited from earlier work
CHO C12-32 = test: Luciferase inducibility in CRE-pretest cell clone C12-32; assay type: cell-based, Chinese hamster; conditions: 20 μM forskolin, 5 hours
Protocol: (This plasmid differs from the pADneo2-C6-BGL described in Example 1) in that the section containing the 6 CRE-elements is duplicated and the β-globin promotor is replaced by the TK-promotor (see Example 1 b)). In order to do this the SalI-HindIII-β-globin-promotor-fragment was replaced by a similarly cut fragment containing the TK-promotor (McKnight, 1980)).
The transfection and testing of the cell clones were carried out as in Example 7 a).

cell line A20 = test: Luciferase induction in stable TRE-pretest cell line A20 (A549, pBHluc1.3); conditions: A20
Protocol: In order to produce a stable (pre-)test cell line for substances which influence the expression of the luciferase gene by direct or receptor-mediated modulation of the IP3 /DAC-signal transduction pathway, A549 cells were simultaneously transfected with the plasmid pBHluc1.3 and the selection plasmid pRSVneo by electroporation as follows: after removal of the medium the cells were detached from the surface by means of a trypsin/PBS solution, suspended in medium and sedimented for 5 minutes at 250×g. […] 0.8 ml of cell suspension were combined with 20 μg of pBHluc1.3 and 2 μg of pRSVneo. Both plasmids had previously been linearised with BamHI.
(§1) 15-20 days after transfection, individual cell clones were transferred into 96-well microtitre plates and further cultivated. […] Approximately 40,000 cells in each clone were sown, in a procedure repeated 6 times, in 200 μl per well of a light-impervious 96-well microtitre plate coated with tissue culture (Microlite™, Dynatech Laboratories) and incubated overnight at 37° C. Three mixtures were treated with 10 ng TPA/ml and incubated for a further 8 hours. Then the medium was removed and the cells were washed twice with PBS.
(§2) The pretest cell line A20 was transfected, as described under a), by electroporation with the plasmid pAHyg-NK2, which had previously been linearised with BglII. From the day after transfection onwards, the cells were grown in selection medium, as used for the cell line A20 and additionally enriched with 150 μg/ml hygromycin B (Sigma). Individual clones were tested for inducibility of the luciferase activity as described under a).

A549 cells [3] = test: Induction of TRE-sensor-DNA (luciferase) in transiently transfected pretest cells, A549; conditions: A549
Protocol: (§3) Approximately 1×10^7 cells per transfection were detached from the surface of the culture dish using trypsin and centrifuged for 5 minutes at 1200 rpm at ambient temperature (Heraeus Minifuge), washed once with 5 ml of serum-free medium, centrifuged for 5 minutes at 1200 rpm and suspended in 1 ml of serum-free medium. Then the cells were mixed with 250 μg/ml DEAE-dextrane, 5 μg plasmid DNA and 50 μg/ml chloroquin, incubated for 30 minutes at 37° C., washed once with medium containing no FCS and incubated overnight at 37° C. with 10 ml of fresh serum-containing medium. Then the medium was changed and after 4 hours the cells were induced, either with 10 ng TPA/ml medium or with 20 μM forskolin. […] The cells were lysed by the addition of 100 μl lysing buffer (1% Triton X-100, 25 mM glycylglycine pH 7.8, 15 mM MgSO4, 4 mM EDTA and 1 mM […]), the lysate was centrifuged for 5 minutes and the supernatant was transferred into a fresh test tube. […] The measuring time for light emission was 10 seconds.
(§4) The cell lines A549, HeLa and COS-7 were transiently transfected as described above by the addition of plasmid pBHluc1.3 and induced by the addition of TPA. Cells which were only transfected but not induced were used as a negative control.
(§5) The cell lines A549, HeLa and COS-7 were transiently transfected by the addition of plasmid pADneo(3TRE)BGluci and induced by the addition of TPA or forskolin. Once again, cells which were only transfected but not induced were used as a negative control.
(§6) The cell lines COS-7 and A549 were transiently transfected by the addition of plasmid pADneo(3×TREd16)BGluci, pADneo(3×TREd21)BGluci, pADneo(3×TREd24)BGluci, pADneo(3×TREd34)BGluci, pADneo(6×TREd16)BGluci, pADneo(6×TREd21)BGluci, pADneo(6×TREd24)BGluci or pADneo(6×TREd34)BGluci and induced by the addition of TPA or forskolin.

cell line CHO C6-13 = test: Luciferase expression in CRE-pretest cell line CHO C6-13
Protocol: The transfection by electroporation was carried out as follows: after removal of the medium the cells were detached from the surface by means of a trypsin/PBS solution, suspended in medium and pelleted for 5 minutes at 250×g. The cells were washed in HBS (10 mM HEPES pH 7.4, 150 mM NaCl) and pelleted by centrifuging. The cells were suspended in HBS in a density of 1×10^7 cells/ml. 0.8 ml of cell suspension were mixed with 20 μg of DNA of the plasmid pADneo2-C6-BGL linearised with ScaI and transferred into an electroporation dish. […] After the electroporation the cells were diluted in the medium mentioned above, 20,000 cells per 90 mm culture dish was sown and incubated overnight at 37° C.
Two batches of each were treated with 20 μM forskolin and incubated for a further 5 hours at 37° C. Then the medium was removed from all the cells and the cells were washed with PBS.
Cells of the cell line CHO C6-13 were treated for 3 hours with various substances which alter the intracellular concentration of cAMP or IP3 /DAG or simulate a change in concentration, and also treated with receptor-specific agonists which influence the above-mentioned signal transduction mechanisms.

HeLa cells = test: Induction of TRE-sensor-DNA (luciferase) in transiently transfected pretest cells, HeLa; conditions: 10 ng TPA/ml or 20 μM forskolin, 18 h
Protocol: as §3, §4, §5

COS-7 cells = test: Induction of TRE-sensor-DNA (luciferase) in transiently transfected pretest cells, COS-7; conditions: COS-7
Protocol: as §3, §4, §5, §6

[4] = molecular target: T1, human neurokinin 2-receptor (Homo sapiens, UniProt P21452); test: Luciferase activity in NK2-test cell line A20/NK2-122; conditions: A20/NK2-122
T1 sequence (P21452 1-398): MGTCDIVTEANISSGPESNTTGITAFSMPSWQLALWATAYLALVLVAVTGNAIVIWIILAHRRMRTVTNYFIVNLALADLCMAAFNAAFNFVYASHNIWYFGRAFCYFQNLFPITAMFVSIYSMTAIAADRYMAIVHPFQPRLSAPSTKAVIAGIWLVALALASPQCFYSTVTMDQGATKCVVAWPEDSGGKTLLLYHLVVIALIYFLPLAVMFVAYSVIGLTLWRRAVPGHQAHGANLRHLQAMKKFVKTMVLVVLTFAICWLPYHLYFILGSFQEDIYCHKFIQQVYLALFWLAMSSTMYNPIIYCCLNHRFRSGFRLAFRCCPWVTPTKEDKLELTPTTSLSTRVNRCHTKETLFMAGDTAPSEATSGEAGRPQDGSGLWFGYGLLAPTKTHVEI
Protocol: as §1
This Example illustrates the preparation of a test cell line for the human neurokinin 2 (NK2)-receptor which is coupled to the phospholipase C-signal transduction pathway. This test cell line makes it possible, by measurement of the luciferase activity, to identify substances which modulate the intracellular IP3 /DAG concentrations, depending on the receptor.
as §2

human 5HT2-receptor = human 5HT2-receptor (Homo sapiens, UniProt P28223); test: Induction of pADneo2-C6-BGL (CRE) via 5-HT2-receptor in co-transfected COS-7 cells; assay type: cell-based; conditions: 20 μM forskolin or 10 μ α-methylserotonin-maleate
Protocol: Induction was carried out with i) 20 μM forskolin (Sigma P8139), ii) 10 μα-methylserotonin-maleate (RBI M-110), and iii) 10 μα-methylserotonin-maleate and 10 μM ketanserin-tartrate (RBI S-006). […] It follows, from the above results, that, depending on 5-HT2 -receptors, only regulation elements which respond to IP3 /DAG (TRE), but not regulation elements which respond to cAMP (CRE) are selectively activated.

[5] = 10 ng TPA/ml or 20 μM forskolin, 18 h

Sequence of human dopamine D1-receptor (P21728 whole entry): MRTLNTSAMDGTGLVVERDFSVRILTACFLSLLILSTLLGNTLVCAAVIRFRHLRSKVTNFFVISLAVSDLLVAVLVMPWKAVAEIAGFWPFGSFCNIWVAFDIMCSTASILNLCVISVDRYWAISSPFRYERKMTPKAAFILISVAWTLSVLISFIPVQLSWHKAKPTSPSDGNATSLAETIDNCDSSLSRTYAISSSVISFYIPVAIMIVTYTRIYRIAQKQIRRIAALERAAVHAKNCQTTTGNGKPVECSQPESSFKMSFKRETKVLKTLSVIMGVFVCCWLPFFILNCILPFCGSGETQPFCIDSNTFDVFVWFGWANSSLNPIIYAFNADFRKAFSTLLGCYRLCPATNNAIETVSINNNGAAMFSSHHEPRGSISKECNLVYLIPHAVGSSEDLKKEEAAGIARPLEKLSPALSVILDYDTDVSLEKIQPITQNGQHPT
Sequence of human 5HT2-receptor (P28223 whole entry): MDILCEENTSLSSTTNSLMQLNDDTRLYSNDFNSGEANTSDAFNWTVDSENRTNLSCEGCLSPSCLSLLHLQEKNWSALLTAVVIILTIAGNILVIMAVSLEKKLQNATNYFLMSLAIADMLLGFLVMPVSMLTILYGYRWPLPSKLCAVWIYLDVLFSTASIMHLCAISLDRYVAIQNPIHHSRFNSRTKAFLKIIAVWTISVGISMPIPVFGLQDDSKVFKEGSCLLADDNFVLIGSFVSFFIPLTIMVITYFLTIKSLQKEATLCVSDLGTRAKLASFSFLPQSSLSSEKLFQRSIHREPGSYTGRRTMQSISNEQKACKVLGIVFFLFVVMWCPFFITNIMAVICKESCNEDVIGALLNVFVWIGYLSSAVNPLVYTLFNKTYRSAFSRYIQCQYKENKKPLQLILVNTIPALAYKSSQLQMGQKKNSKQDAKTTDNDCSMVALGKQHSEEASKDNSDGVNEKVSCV

C=C[C@@]1(C)CC(=O)[C@]2(O)[C@@]3(C)[C@@H](O)CCC(C)(C)[C@@H]3[C@H](O)[C@H](OC(C)=O)[C@@]2(C)O1 [forskolin]
induction of luciferase expression (CRE) [1]: induced by forskolin and by apomorphine
induction of 1.3 kb ICAM-1 fragment / pBHluc1.3 (A549 cells [2]): cannot be activated by forskolin; also recorded: cannot be induced by forskolin
inducibility of luciferase by forskolin, clone C12-32 (CHO C12-32): very high inducibility
induction of luciferase activity by forskolin (cell line A20): did not result in any induction of luciferase activity
induction of pADneo(3TRE)BGluci (A549 cells [3]; [5]): not by forskolin
induction of pADneo(nTREdx)BGluci by forskolin (A549 cells [3]; 20 μM forskolin): none of the constructions can be induced with forskolin
inducibility of luciferase by forskolin, clone C6-13 (cell line CHO C6-13; 20 μM forskolin, 5 hours): very high inducibility
change in luciferase expression/activity (cell line CHO C6-13; 3 hours treatment, FIG. 33): increased
luciferase induction at concentrations higher than 20 μM (attributed to toxic effects or excessively high cAMP level) (cell line CHO C6-13; > 20 μM forskolin): drop in luciferase induction at even higher concentrations
EC100 (cell line CHO C6-13; Cricetulus griseus, read-out: concentration of maximum induction of the luciferase reporter gene): 20 µM
time up to which induction does not change (cell line CHO C6-13; after forskolin stimulation): 4 h
time after stimulation at which increased luciferase activity can be detected (cell line CHO C6-13; forskolin, FIG. 35A): 60 min
time to total induction of luciferase expression (cell line CHO C6-13; forskolin, FIG. 35A): 2.5 h
dependency of ED50 levels on duration of treatment (cell line CHO C6-13; forskolin, FIG. 35B): virtually unaffected
induction of pADneo(3TRE)BGluci (HeLa cells): not by forskolin
induction of pBHluc1.3 by TPA or forskolin (HeLa cells): not by forskolin
induction of pADneo(3TRE)BGluci (COS-7 cells; [5]): not by forskolin
induction of pBHluc1.3 by TPA or forskolin (COS-7 cells; [5]): not by forskolin
induction of pADneo(nTREdx)BGluci by forskolin (COS-7 cells; 20 μM forskolin): none of the constructions can be induced with forskolin
induction of luciferase activity by forskolin [4]: did not result in any induction of luciferase activity
induction of luciferase expression (CRE) (human 5HT2-receptor): induced by forskolin
